Assay results taken from the NIST ThermoML archive (doi:10.1021/je0201976).

Conditions: Liquid

FC(F)OCC(F)(F)F [1,1,1-trifluoro-2-(difluoromethoxy)ethane]
Conditions	Critical pressure [kPa]	Critical temperature [K]	vapor or sublimation pressure [kPa]
–	3457	444.88	–
294.35 K	–	–	72.3
298.14 K	–	–	84.3
300.2 K	–	–	91.5
303.14 K	–	–	102.8
313.12 K	–	–	148.1
323.16 K	–	–	207.8
333.19 K	–	–	284.6
343.23 K	–	–	381.2
353.26 K	–	–	500.9
363.3 K	–	–	646.8
373.34 K	–	–	823
383.37 K	–	–	1031.9
393.42 K	–	–	1282.6
403.45 K	–	–	1575.8
413.47 K	–	–	1919.5
423.52 K	–	–	2334.2
433.56 K	–	–	2798.5
443.56 K	–	–	3339.2

COCC(F)(F)C(F)(F)C(F)(F)C(F)F [1,1,2,2,3,3,4,4-octafluoro-5-methoxypentane]
Conditions	Critical pressure [kPa]	Critical temperature [K]	vapor or sublimation pressure [kPa]
–	2392	546.1	–
301.49 K	–	–	2.3
312.42 K	–	–	4
322.54 K	–	–	6.9
332.62 K	–	–	11.2
342.67 K	–	–	18.1
352.72 K	–	–	29.1
362.75 K	–	–	48
372.79 K	–	–	74.3
382.81 K	–	–	106.8
392.83 K	–	–	147.1
402.86 K	–	–	193.8
412.89 K	–	–	250.4
422.92 K	–	–	320.1
432.94 K	–	–	395.7
442.97 K	–	–	482.8
452.99 K	–	–	585.8
463 K	–	–	710.7
473.04 K	–	–	849.5
483.07 K	–	–	1006.9
492.89 K	–	–	1184.9
502.72 K	–	–	1385.9
512.54 K	–	–	1615.9
522.34 K	–	–	1873.5
532.17 K	–	–	2168.7
541.94 K	–	–	2471.9
545.63 K	–	–	2602.5

FC(F)C(F)(F)COC(F)(F)C(F)F [1,1,2,2-tetrafluoro-3-(1,1,2,2-tetrafluoroethoxy)propane]
Conditions	Critical density [kg/m3]	Critical pressure [kPa]	Critical temperature [K]	vapor or sublimation pressure [kPa]
–	530	–	–	–
322.65 K	–	–	–	20.9
332.65 K	–	–	–	31.6
342.71 K	–	–	–	46.8
352.73 K	–	–	–	67.9
362.77 K	–	–	–	95.4
372.77 K	–	–	–	131.3
382.81 K	–	–	–	177.3
402.88 K	–	–	–	308.1
412.91 K	–	–	–	395.4
422.94 K	–	–	–	500.2
432.96 K	–	–	–	628.3
442.99 K	–	–	–	773.9
453.01 K	–	–	–	946.9
463.24 K	–	–	–	1151.4
473.06 K	–	–	–	1378.5
481.12 K	–	–	–	1591
491.9 K	–	–	–	1907.6
501.73 K	–	–	–	2245.2
509.65 K	–	–	–	2552.5
Direct measurement	–	2581	–	–
Visual observation in an unstirred cell	–	–	510.07	–

FCC(F)(F)F [1,1,1,2-tetrafluoroethane]
Conditions	Critical density [kg/m3]	Critical pressure [kPa]	Critical temperature [K]
–	508	–	–
Direct measurement	–	4051	–
Visual observation in an unstirred cell	–	–	374.13

FC(F)OCC(F)(F)C(F)(F)F [difluoromethyl 2,2,3,3,3-pentafluoropropyl ether]
Conditions	Critical density [kg/m3]	Critical pressure [kPa]	Critical temperature [K]	vapor or sublimation pressure [kPa]
–	576	–	–	–
298.42 K	–	–	–	44.2
322.49 K	–	–	–	111.5
332.63 K	–	–	–	157.2
342.7 K	–	–	–	216.6
352.65 K	–	–	–	290.7
362.73 K	–	–	–	384.1
372.78 K	–	–	–	498.1
382.79 K	–	–	–	637.5
392.82 K	–	–	–	807.7
402.86 K	–	–	–	1006.3
412.9 K	–	–	–	1244.5
422.93 K	–	–	–	1524.9
432.96 K	–	–	–	1858.4
442.98 K	–	–	–	2203.3
454.99 K	–	–	–	2769
455.27 K	–	–	–	2796.4
Direct measurement	–	2773	–	–
Visual observation in an unstirred cell	–	–	455.1	–

FC(C(F)(F)F)C(F)(F)OCC(F)(F)F (configuration not stated) [1,1,1,2,3,3-hexafluoro-3-(2,2,2-trifluoroethoxy)propane]
Conditions	Critical density [kg/m3]	Critical pressure [kPa]	Critical temperature [K]	vapor or sublimation pressure [kPa]
–	563	–	–	–
302.76 K	–	–	–	18.7
312.63 K	–	–	–	29.6
322.65 K	–	–	–	44.6
332.64 K	–	–	–	65.7
342.72 K	–	–	–	93.9
352.73 K	–	–	–	131
362.77 K	–	–	–	179.1
372.79 K	–	–	–	239.7
382.83 K	–	–	–	315.9
392.84 K	–	–	–	408
402.89 K	–	–	–	521.2
412.92 K	–	–	–	657.3
422.94 K	–	–	–	814.3
432.97 K	–	–	–	1004.4
443 K	–	–	–	1225.6
453.02 K	–	–	–	1480.3
463.04 K	–	–	–	1778.5
473.06 K	–	–	–	2125
475.79 K	–	–	–	2236.1
Direct measurement	–	2233	–	–
Visual observation in an unstirred cell	–	–	475.74	–

COCC(F)(F)C(F)(F)C(F)(F)F [1,1,1,2,2,3,3-heptafluoro-4-methoxybutane]
Conditions	Critical density [kg/m3]	Critical pressure [kPa]	Critical temperature [K]	vapor or sublimation pressure [kPa]
–	497	–	–	–
291.65 K	–	–	–	12.1
302.31 K	–	–	–	20.4
312.43 K	–	–	–	32.3
322.64 K	–	–	–	48.9
332.66 K	–	–	–	71.5
337.71 K	–	–	–	85.4
342.7 K	–	–	–	101.2
347.73 K	–	–	–	119.2
362.74 K	–	–	–	189.2
372.75 K	–	–	–	250.2
382.82 K	–	–	–	326.6
392.85 K	–	–	–	419.6
402.88 K	–	–	–	531.3
412.9 K	–	–	–	664.3
422.92 K	–	–	–	820.3
432.95 K	–	–	–	1004.6
442.98 K	–	–	–	1216.4
453 K	–	–	–	1462.9
463.01 K	–	–	–	1746.1
473.05 K	–	–	–	2071.1
478.44 K	–	–	–	2266.3
481.5 K	–	–	–	2382.5
481.66 K	–	–	–	2389.1
Direct measurement	–	2381	–	–
Visual observation in an unstirred cell	–	–	481.54	–

COC(F)(F)C(F)(F)C(F)F [1,1,2,2,3,3-hexafluoro-1-methoxypropane]
Conditions	Critical pressure [kPa]	Critical temperature [K]	vapor or sublimation pressure [kPa]
–	3032	486.98	–
301.9 K	–	–	22.4
312.59 K	–	–	35
322.63 K	–	–	52.9
332.69 K	–	–	77
337.67 K	–	–	92.1
342.69 K	–	–	109.2
352.73 K	–	–	151.1
362.74 K	–	–	204.9
372.78 K	–	–	273.4
382.81 K	–	–	357.4
392.84 K	–	–	458.8
402.87 K	–	–	581.1
412.87 K	–	–	726.2
422.91 K	–	–	898.8
432.94 K	–	–	1100.7
442.97 K	–	–	1333.7
452.99 K	–	–	1605.1
463.02 K	–	–	1921.8
473.04 K	–	–	2276.4
480.12 K	–	–	2562.9
